PubChem BioAssay (NCI)
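1) Cells in 96-well plates. 2) Compound, 48 h, 5 concentrations. 3) Linear interpolation between surrounding doses. 4) Unreached endpoint = highest concentration. TGI: total growth inhibition.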

Columns and labels:
Assay in all cases: NCI anticancer screen, dose series, 48 h
[1] = tested on: HL-60(TB) leukemia
[2] = tested on: HT29 colon
[3] = tested on: LOX IMVI melanoma
[4] = tested on: MALME-3M melanoma
[5] = tested on: MOLT-4 leukemia
[6] = tested on: NCI-H226 lung
[7] = tested on: NCI-H460 lung
[8] = tested on: NCI/ADR-RES ovarian
[9] = tested on: SK-MEL-5 melanoma

| SMILES | TGI [1] | TGI [2] | TGI [3] | TGI [4] | TGI [5] | TGI [6] | TGI [7] | TGI [8] | TGI [9] |
| --- | --- | --- | --- | --- | --- | --- | --- | --- | --- |
| c1cncc(CSc2ncnc3nc[nH]c23)c1 | > 100 µM | > 100 µM | > 100 µM | > 100 µM | > 100 µM | > 100 µM | > 100 µM | > 100 µM | > 100 µM |
| COc1ccc(NC/C=C/C(=C/COC(C)=O)OC(C)=O)cc1 |  |  | 4.79 µM | 5.57 µM | > 100 µM | 51.7 µM | 4.8 µM | 7.04 µM | 28.8 µM |
| CCCCN(C)C(=O)C1=C(C)NC(C)=C(C(=O)N(C)CCCC)C1 | > 100 µM | > 100 µM | > 100 µM |  | > 100 µM | > 100 µM | > 100 µM | > 100 µM | > 100 µM |
| C=C[C@]1(O[Si](C)(C)C)C[C@@]2(C(=O)OCC)C(O)C(=O)N3CCc4cc(OC)c(OC)cc4[C@]312 (stereo partly drawn) |  | > 100 µM | > 100 µM | > 100 µM | > 100 µM | > 100 µM | > 100 µM | > 100 µM | > 100 µM |
| S=C(N/N=C/c1ccccn1)N1CCCCCC1 |  | > 44.2 µM | 64.1 µM | 42.4 µM |  | 1.94 µM | 0.211 µM | 0.105 µM | 1.18 µM |
| BrCc1ccc(CBr)c2c1-c1c(CBr)ccc3ccc(CBr)c-2c13 | > 100 µM | > 100 µM | > 100 µM | > 100 µM | > 100 µM | > 100 µM | > 100 µM | > 100 µM |  |
| COc1ccc(NC(=O)C(=O)Cc2nc3ccc(C(=O)c4ccccc4)cc3[nH]c2=O)c([N+](=O)[O-])c1 |  | 35.9 µM | > 100 µM | > 100 µM | 40.1 µM | 39.8 µM | > 100 µM | 33.2 µM | 68.8 µM |
| C[C@H](NC(=O)CNC(=O)CCCCCC(=O)NCC(=O)N[C@@H](C)C(=O)OCc1ccccc1)C(=O)OCc1ccccc1 |  | > 100 µM | > 100 µM | > 100 µM | > 100 µM | > 100 µM |  | > 100 µM |  |
| O=C1C=C(C2=C(C3=CC(=O)c4ccccc4C3=O)C(=O)c3ccccc3C2=O)C(=O)c2ccccc21 | 3.68 µM | 12.5 µM | 14.6 µM | 4.82 µM | 2.27 µM | 29.9 µM | 39.6 µM | 36.4 µM | 23.9 µM |
| CCOC(=O)/C=C/C1(CCOC(C)=O)CCCCC1 | > 10 µM | > 10 µM | > 10 µM |  | > 10 µM | > 10 µM | > 10 µM | > 10 µM | > 10 µM |
| O=c1cc(CNC2CC3CCC2C3)[nH]c(=O)[nH]1 (stereo not drawn) | > 100 µM | > 100 µM | > 100 µM | > 100 µM | > 100 µM |  | > 100 µM | > 100 µM | > 100 µM |
| CC(C)CCC[C@@H](C)[C@H]1CC[C@H]2C3=C[C@H](OS(=O)(=O)O)[C@@]4(O)C[C@@H](O)CC[C@]4(C)[C@@]3(O)CC[C@]12C |  | > 100 µM | > 100 µM | > 100 µM | > 100 µM | > 100 µM | > 100 µM | > 100 µM | > 100 µM |
| C/C(=N\NC(=S)Nc1ccc([N+](=O)[O-])cc1)c1nc2ncccc2[nH]1 | > 100 µM | 2.04 µM |  | 18.5 µM | 13.3 µM | 1.87 µM | 3.31 µM | 5.22 µM | 5.27 µM |
| O=S(=O)(O)c1ccc2cc(N=Nc3c(O)ccc4ccccc34)ccc2c1 | > 100 µM | > 100 µM |  | > 100 µM | > 100 µM | > 100 µM | > 100 µM | > 100 µM | > 100 µM |
| CC(=O)N(CC(=O)C(=O)NNc1ccoc1)c1ccc(Cl)cc1 |  | > 100 µM | > 100 µM | > 100 µM | > 100 µM | > 100 µM | > 100 µM | > 100 µM | > 100 µM |
| Nc1[nH]c(=O)[nH]c(=O)c1Cc1cccc(Cl)c1 |  | > 100 µM | > 100 µM | > 100 µM |  | > 100 µM | > 100 µM | > 100 µM |  |
| Cc1ccc(/N=N/C(=NNC(=O)c2ccc(C)cc2)c2ccc(N(C)C)cc2)cc1 | 72.1 µM | 91.3 µM | > 100 µM |  | > 100 µM | 68.4 µM | 80.3 µM | > 100 µM | 30.7 µM |
| CC(=O)O[C@@H]1[C@H]2[C@@H](OC(=O)c3ccccc3)[C@@H](C)C[C@]2(O)[C@H](OC(C)=O)[C@@]2(C)[C@@H]3C[C@@](C)(OC(C)=O)C[C@@H](OC(C)=O)[C@@]3(OC(C)=O)C[C@@]12C | > 10 µM |  | > 10 µM |  | > 10 µM | > 10 µM | > 10 µM | > 10 µM | > 10 µM |
| C=C1C2CCC3(CCC4C5(C)CCCC4(C=[N+](CCO)C5)C3C2)C1O (stereo not drawn) | > 100 µM | > 100 µM | > 100 µM | > 100 µM |  |  | > 100 µM | > 100 µM | > 100 µM |
| O=C(O)Cc1cccc2c(=O)c3cccc([N+](=O)[O-])c3[nH]c12 | > 100 µM | > 100 µM | > 100 µM | 97.6 µM | > 100 µM |  | > 100 µM | > 100 µM | > 100 µM |
| c1ccc(COC2C3COC(O3)C(OCc3ccccc3)C2OCc2ccccc2)cc1 (stereo not drawn) | 30.9 µM |  | > 100 µM |  | 56.5 µM | > 100 µM | > 100 µM | > 100 µM | > 100 µM |
| Nc1c(Cl)cc(-c2nc3ccccc3s2)cc1Cl | > 100 µM | > 100 µM |  | > 100 µM | > 100 µM | > 100 µM | > 100 µM | > 100 µM | > 100 µM |
| Cc1ccc(S(=O)(=O)NC(=O)Nc2cc(Cl)c(S(N)(=O)=O)cc2S(N)(=O)=O)cc1 | > 100 µM | > 100 µM | > 100 µM | > 100 µM | > 100 µM | > 100 µM |  | > 100 µM | > 100 µM |
| Nc1ccc(-c2nc3ccc(F)cc3s2)cc1I |  | > 100 µM | > 100 µM | > 100 µM | > 100 µM | > 100 µM | > 100 µM | > 100 µM | > 100 µM |
| O=c1[nH]c2nc[nH]c2c(=O)n1C1CCCCC1 | > 100 µM | > 100 µM |  | > 100 µM | > 100 µM | > 100 µM | > 100 µM | > 100 µM | > 100 µM |
